Results taken from PubChem BioAssay (NCI).
Several values for one entry are separate records, joined by “and”; a condition that tells them apart may be missing. Equal entries are not always repeated.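 In this assay, cells in 96-well plates receive the compound at five concentrations for 48 hours. Endpoints are linearly interpolated between the surrounding concentrations. Here, GI50 denotes the concentration required for 50% inhibition of growth. TGI is the concentration that stops growth completely.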

Key:
Assay in all cases: inhibition of tumour cell growth, NCI panel, 48 h
CAKI-1 renal = system: CAKI-1 renal
HOP-92 NSCLC = system: HOP-92 NSCLC
SK-MEL-28 melanoma = system: SK-MEL-28 melanoma
HCC-2998 colon = system: HCC-2998 colon
RXF 393 renal = system: RXF 393 renal
NCI-H226 lung = system: NCI-H226 lung
SF-295 CNS = system: SF-295 CNS
UACC-62 melanoma = system: UACC-62 melanoma
OVCAR-3 ovarian = system: OVCAR-3 ovarian
A549 NSCLC = system: A549 NSCLC
HT29 colon = system: HT29 colon
HOP-62 NSCLC = system: HOP-62 NSCLC

Compound | TGI (CAKI-1 renal) [µM] | TGI (HOP-92 NSCLC) [µM] | TGI (SK-MEL-28 melanoma) [µM] | TGI (HCC-2998 colon) [µM] | TGI (RXF 393 renal) [µM] | GI50 (NCI-H226 lung) | TGI (NCI-H226 lung) [µM] | TGI (SF-295 CNS) [µM] | TGI (UACC-62 melanoma) [µM] | TGI (OVCAR-3 ovarian) [µM] | TGI (A549 NSCLC) [µM] | TGI (HT29 colon) [µM] | TGI (HOP-62 NSCLC) [µM] | GI50 (HOP-92 NSCLC) [µM] | GI50 (SK-MEL-28 melanoma) [µM] | GI50 (SF-295 CNS) [µM] | GI50 (OVCAR-3 ovarian) [nM] | GI50 (A549 NSCLC) [nM] | GI50 (HOP-62 NSCLC) [µM]
N#Cc1c(-c2ccccc2)[nH]c(=O)n(C2OC(CO)C(O)C(O)C2O)c1=O (stereo not given) | > 100 | > 100 | > 100 | > 100 | > 100 | > 100 µM and 45.4 µM | > 100 | > 100 | > 100 | > 100 | > 100 | > 100 | > 100 |  |  |  |  |  | 
C=C1C(=O)O[C@@H]2C=C(C)C3=CC(=O)[C@](C)(C[C@H](OC(=O)/C(C)=C\C)[C@@H]12)O3 | 1.38 | 2.18 | 3.03 | 3.06 | 1.52 |  | 4.99 | 6.47 | 2.06 | 1.71 | 10.1 | 2.73 | 10.5 |  |  |  |  |  | 
COC(=O)[C@H](Cc1c[nH]c2ccccc12)NC(=O)c1ccc(CNC(=O)/C=C/c2cccc(Oc3ccccc3)c2)cc1 | > 100 | > 100 | > 100 | > 100 | 81.6 |  | > 100 | > 100 | > 100 | > 100 | > 100 | > 100 | > 100 |  |  |  |  |  | 
NC1=CN2c3ccccc3N(CC(=O)O)C2C=C1 (stereo not given) | > 100 | > 100 | > 100 | > 100 | > 100 |  | > 100 | > 100 | > 100 | > 100 | > 100 | > 100 | > 100 |  |  |  |  |  | 
COc1ccc(N2C=Nn3c(nc4sc5c(c4c3=O)CCCC5)C2)cc1 | > 100 | 41.8 | > 100 | > 100 | 57.1 |  | > 100 | 68 | > 100 | > 100 | > 100 | > 100 | 13.5 |  |  |  |  |  | 
CC1=NN(c2nc(N)nc(CC#N)n2)C(C)(C)C1 | > 100 | > 100 | > 100 | > 100 | > 100 |  | > 100 | > 100 | > 100 |  |  | > 100 | > 100 |  |  |  |  |  | 
CN(C)CCCn1nc(N)c2nc3cc(Cl)ccc3nc21 | > 100 | 76.7 | 35.7 | > 100 | > 100 |  | > 100 | > 100 | 45 | > 100 | > 100 | > 100 | > 100 |  |  |  |  |  | 
Cc1c2c(OCCN3CCCCC3)nn(C)c(=O)c2c(C)n1-c1ccccc1 | > 100 | > 100 | 84.7 | 65.3 | > 100 |  | > 100 | 47.9 | > 100 | > 100 | > 100 | > 100 | > 100 |  |  |  |  |  | 
Clc1ccc(C(SCc2ccccc2)SCc2ccccc2)cc1 | > 10 | > 10 | > 10 | > 10 | > 10 |  | > 10 | > 10 | > 10 | > 10 | > 10 | > 10 | > 10 |  |  |  |  |  | 
CCOC(=O)c1sc2[n+](c1C)C(=O)/C(=C/c1ccc([N+](=O)[O-])cc1)S2 | 37.7 | > 100 | > 100 | 37.5 | 81.5 |  | 58.4 | 64.4 | 40.3 | 24.1 | > 100 | 41.9 | 74 |  |  |  |  |  | 
Cc1ccc(/C=N/Nc2ccc3ccccc3n2)s1 | > 100 | 78.3 | 55.9 | 30.7 | > 100 |  | > 100 | 38.4 | > 100 | 28.9 | 40 | 44 | 41.1 |  |  |  |  |  | 
Cc1ccc(NC(=O)CSc2nc(=O)[nH]c3nc[nH]c23)cc1 | > 100 | > 100 | > 100 | > 100 | > 100 |  | > 100 | > 100 | > 100 | > 100 | > 100 | > 100 | > 100 |  |  |  |  |  | 
Cc1cn([C@@H]2O[C@H](CO[Si](C)(C)C(C)(C)C)[C@]3(O[C@H]3C(=O)NN)[C@H]2O[Si](C)(C)C(C)(C)C)c(=O)[nH]c1=O | 28.2 | 19.7 | 25.3 | 7.78 | > 25.2 |  | 27.6 | 22.2 | 24 | 15.9 | 16.6 | 7.79 | 33.3 |  |  |  |  |  | 
O=CC12C3CCC1C2C(=O)C3 (stereo not given) | > 100 | > 100 | > 100 | > 100 | > 100 |  | > 100 | > 100 | > 100 | > 100 | > 100 | > 100 | > 100 |  |  |  |  |  | 
c1c[nH]c(C23C4C5C6C4C2C6C53)n1 (stereo not given) | > 100 | > 100 | > 100 | > 100 | > 100 |  | > 100 | > 100 | > 100 | > 100 | > 100 | > 100 | > 100 |  |  |  |  |  | 
CCOC(=O)/C(C#N)=C/c1ccnc2ccccc12 | > 100 | > 100 | > 100 | > 100 | > 100 |  | > 100 | > 100 | > 100 | > 100 | > 100 | > 100 | > 100 |  |  |  |  |  | 
CCN(CC)CCNC(=O)c1cn2c(ccc3sc4ccccc4c(=O)c32)n1 | 24.2 | 24.6 | 25.6 | 24.3 | 24.2 |  | 40.6 | 23.9 | 29.1 | 26.7 | 21 | 20.4 | 21.4 |  |  |  |  |  | 
CCCCCCCCCCCCCCCC(=O)N(CCCCCCCCCCC(=O)O)CC(O)C(O)C(OC1OC(CO)C(O)C(O)C1O)C(O)CO (stereo not given) | > 100 | > 100 | 34.6 | 49.5 | > 100 |  | > 100 | 33.4 | 34.7 | > 100 | > 100 | 42.8 | 75.8 |  |  |  |  |  | 
C=C1C(=O)O[C@@H]2C[C@]3(C)CC[C@]4(C)[C@H](CC[C@@H]5[C@@]6(C)CCC(=O)C(C)(C)[C@@H]6CC[C@]54C)[C@H]3[C@H]12 | 30.2 | 26.2 | 38.4 | 33.7 | 34.3 |  | 38.4 | 33.6 | 32.9 | 35.5 | 46.9 | > 56.7 | 49.2 |  |  |  |  |  | 
C/C=C/C1OC(O)(C(C)C(O)[C@H](C)C2OC(=O)/C(OC)=C/C(C)=C/[C@@H](C)[C@@H](O)[C@@H](C)C(O)C(C)C/C(C)=C/C=C/C2OC)C[C@@H](OC2CC(O)C(OC(N)=O)C(C)O2)C1C (stereo not given in full) | 13.9 | < 0.01 | 3.18 | < 0.01 | 1.91 |  | 6.97 | < 0.01 | < 0.01 | 3.24 | 13.3 | 1.54 | < 0.01 |  |  |  |  |  | 
Cc1cc(S(=O)(=O)Nc2nc(N)nc(N(C)C)n2)c(SCC(=O)O)cc1Cl | > 10 | > 10 | > 10 | > 10 | > 10 |  | > 10 | > 10 |  | > 10 | > 10 | > 10 | > 10 |  |  |  |  |  | 
CN(/N=C/c1ccnc2ccccc12)c1ccc(Cl)cc1[N+](=O)[O-] | > 100 | > 100 |  | > 100 | > 100 |  | > 100 | > 100 | > 100 | > 100 | > 100 | > 100 | > 100 |  |  |  |  |  | 
CCCCCCCCCCC1OC([C@@H](O)CC[C@H](O)C2CC[C@@H](CCCCCCCC(O)CC3=CC(C)OC3=O)O2)CCC1O (stereo not given in full) | > 25 | > 25 | > 25 | > 25 | > 18.6 |  | > 25 | > 25 | > 25 | > 23.5 | > 25 |  | > 25 | 3.03 | 5.34 | 4.31 | 1690 | 2490 | 6.29
COc1ccc(OC)c(NS(=O)(=O)c2ccc3nc(C)n(NS(=O)(=O)c4cc(OC)ccc4OC)c(=O)c3c2)c1 | > 100 | > 100 | > 100 | > 100 | > 100 |  | > 100 | > 100 | > 100 | > 100 |  | > 100 | > 100 |  |  |  |  |  | 
COc1cc2cc(C(=O)N3CC(CCl)c4c3cc(N)c3ccccc43)[nH]c2c(OC)c1OC (stereo not given) | < 0.01 | 0.275 |  | < 0.01 | < 0.01 |  | 1.13 |  | < 0.01 | < 0.01 | 1.4 | 1.41 | < 0.0109 |  |  |  |  |  | 
O=C(NCc1cccc2ccccc12)N/N=C\c1ccc(Cl)cc1 | > 100 | > 100 | > 100 | > 100 | > 100 |  | > 100 | > 100 | > 100 | > 100 |  | > 100 | > 100 |  |  |  |  |  | 
